IC50 data for 1 compound are collected here from BindingDB's records for doi:10.1021/jm030306r (Merck Research Laboratories, 2003).

This assay deals with Integrin alpha-IIb/beta-3 (Homo sapiens, UniProt P08514+P05106). As to the kind of experiment: Inhibition of alphaIIb-beta3 integrin mediated platelet aggregation.
Chain of Integrin alpha-IIb/beta-3 (P05106 27-788 limits assumed): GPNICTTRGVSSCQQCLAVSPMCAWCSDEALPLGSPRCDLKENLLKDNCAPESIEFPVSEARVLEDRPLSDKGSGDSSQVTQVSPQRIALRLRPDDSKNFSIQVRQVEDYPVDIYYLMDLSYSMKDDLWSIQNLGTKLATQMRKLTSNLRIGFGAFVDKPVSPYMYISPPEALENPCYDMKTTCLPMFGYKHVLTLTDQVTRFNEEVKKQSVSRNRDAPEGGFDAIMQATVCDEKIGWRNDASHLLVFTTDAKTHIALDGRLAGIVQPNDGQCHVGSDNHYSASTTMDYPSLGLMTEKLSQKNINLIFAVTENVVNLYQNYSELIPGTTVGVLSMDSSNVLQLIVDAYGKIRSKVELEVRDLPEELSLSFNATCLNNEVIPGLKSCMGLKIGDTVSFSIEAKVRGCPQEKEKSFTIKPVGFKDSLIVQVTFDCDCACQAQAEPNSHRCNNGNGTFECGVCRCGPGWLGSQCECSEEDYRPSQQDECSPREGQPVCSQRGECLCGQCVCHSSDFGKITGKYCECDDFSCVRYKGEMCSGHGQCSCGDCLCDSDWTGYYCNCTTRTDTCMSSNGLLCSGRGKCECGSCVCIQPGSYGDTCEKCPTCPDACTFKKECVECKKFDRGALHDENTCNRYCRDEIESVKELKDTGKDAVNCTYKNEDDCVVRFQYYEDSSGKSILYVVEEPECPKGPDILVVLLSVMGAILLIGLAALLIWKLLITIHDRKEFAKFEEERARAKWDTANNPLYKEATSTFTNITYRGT
Chain of Integrin alpha-IIb/beta-3 (P08514 32-887 limits assumed): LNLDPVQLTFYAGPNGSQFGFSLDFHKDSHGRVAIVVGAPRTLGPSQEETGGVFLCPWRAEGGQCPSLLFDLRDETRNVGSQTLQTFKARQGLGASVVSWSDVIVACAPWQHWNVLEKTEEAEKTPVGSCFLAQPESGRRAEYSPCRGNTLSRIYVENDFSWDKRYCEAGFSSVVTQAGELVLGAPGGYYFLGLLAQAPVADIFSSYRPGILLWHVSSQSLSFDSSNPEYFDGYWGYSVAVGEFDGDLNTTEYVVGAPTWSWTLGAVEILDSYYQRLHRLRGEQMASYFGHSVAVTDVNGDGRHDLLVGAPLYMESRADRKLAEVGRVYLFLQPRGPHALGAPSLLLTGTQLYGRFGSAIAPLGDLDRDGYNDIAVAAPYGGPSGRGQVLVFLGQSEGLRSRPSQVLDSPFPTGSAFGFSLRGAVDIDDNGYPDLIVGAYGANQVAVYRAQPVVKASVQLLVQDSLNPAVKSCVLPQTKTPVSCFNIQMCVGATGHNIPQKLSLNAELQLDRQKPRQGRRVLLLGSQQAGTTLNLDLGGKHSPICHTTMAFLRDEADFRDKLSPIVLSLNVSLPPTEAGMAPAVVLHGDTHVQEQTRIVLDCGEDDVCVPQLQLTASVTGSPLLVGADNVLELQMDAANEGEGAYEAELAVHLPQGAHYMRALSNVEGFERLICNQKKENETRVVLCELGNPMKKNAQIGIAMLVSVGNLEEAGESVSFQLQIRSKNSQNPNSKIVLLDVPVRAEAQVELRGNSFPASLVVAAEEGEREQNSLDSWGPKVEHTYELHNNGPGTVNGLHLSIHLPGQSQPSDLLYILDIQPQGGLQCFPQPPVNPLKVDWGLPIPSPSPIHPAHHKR
Chain of Integrin alpha-IIb/beta-3 (P08514 891-1039 limits assumed): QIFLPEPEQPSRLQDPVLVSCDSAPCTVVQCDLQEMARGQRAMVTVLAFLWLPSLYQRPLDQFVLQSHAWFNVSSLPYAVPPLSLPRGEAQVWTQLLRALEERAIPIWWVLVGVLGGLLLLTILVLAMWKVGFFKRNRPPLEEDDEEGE

Turning to `COc1ccc([C@H](CC(=O)O)N2CCN(CCCc3ccc4c(n3)NCCC4)C2=O)cn1` [(S)-3-(6-Methoxy-pyridin-3-yl)-3-{2-oxo-3-[3-(5,6,7,8-tetrahydro-[1,8]naphthyridin-2-yl)-propyl]-imidazolidin-1-yl}-propionic acid], the IC50 (commonly the point on the concentration scale where inhibition reaches its midpoint) amounted to 34.7 µM.
